For this test, the target named is Human Factor D (Homo sapiens (Human), UniProt P00746). Briefly: Human Factor D Assay. It counts as biochemical. How it is done:
Human Factor D (purified from human serum, Complement Technology, Inc.) at 80 nM final concentration was incubated with test compound at various concentrations for 5 minutes at room temperature in 50 mM Tris, 1M NaCl, pH 7.5. A synthetic substrate Z-L-Lys-SBzl and DTNB (Ellman's reagent) are added to final concentrations of 100 μM each. […] IC50 values are calculated by nonlinear regression of complement Factor D reaction rates as a function of test compound concentration.

Where [1] appears, read: Human Factor D 80 nM, substrate Z-L-Lys-SBzl, star classes, read-out: IC50.
The mark [2] stands for this setting: Human Factor D 80 nM, substrate Z-L-Lys-SBzl, Table 3, read-out: IC5 (Stars).

Among the data in patent publication US10822352B2, “Aryl, heteroaryl, and heterocyclic compounds for treatment of medical disorders” (Achillion Pharmaceuticals, Inc., priority 2015, dated 2020) are IC50 values, retold here.

Read-outs that look alike come from different tables or passages of the source.

Human Factor D, sequence (P00746 26-253): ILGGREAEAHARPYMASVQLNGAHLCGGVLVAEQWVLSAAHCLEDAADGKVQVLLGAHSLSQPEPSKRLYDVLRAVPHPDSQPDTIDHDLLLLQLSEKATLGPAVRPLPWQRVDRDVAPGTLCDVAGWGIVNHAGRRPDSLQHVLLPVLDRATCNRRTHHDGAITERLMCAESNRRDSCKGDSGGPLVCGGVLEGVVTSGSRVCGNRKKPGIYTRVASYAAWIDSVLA

As for `NC(=O)c1nn(CC(=O)N2CCC[C@]2(F)C(=O)Nc2cccnc2)c2ccc(-c3ccnnc3)cc12` [Compound 47, 1-(2-((2S,4R)-2-fluoro-2-(pyridin-3-ylcarbamoyl)pyrroli-din-1-yl)-2-oxoethyl)-5-(pyridazin-4-yl)-1H-indazole-3-carboxamide], the IC50 (Human Factor D 80 nM, substrate Z-L-Lys-SBzl, read-out: IC50) was above 10 µM. `CC(=O)c1nn(CC(=O)N2C[C@H](F)C[C@H]2C(=O)Nc2cccc(Br)n2)c2ccc(-c3nc4c(s3)CCCC4)cc12` [Compound 297]: the IC50 (Human Factor D, assay of Example 8, read-out: IC50) was below 1 µM. As for `CC(=O)c1nn(CC(=O)N2C[C@@H](C)C[C@H]2C(=O)Nc2nc(Br)ccc2C)c2ccc(-c3cnc(C)nc3)cc12` [Compound 643, (2S,4S)-1-(2-(3-Acetyl-5-(2-methylpyrimidin-5-yl)-1H-indazol-1-yl)acetyl)-N-(6-bromo-3-methylpyridin-2-yl)-4-methylpyrrolidine-2-carboxamide], the IC50 under setting [1] was below 1 µM. Regarding `Cc1cccc(NC(=O)[C@@H]2[C@H]3CC[C@H](C3)N2C(=O)Cn2cc(C(N)=O)c3cc(-c4ccc(F)nc4)ccc32)n1` [Compound 500, 5-(6-Fluoropyridin-3-yl)-1-(2-((1R,3S,4S)-3-(6-methylpyridin-2-ylcarbamoyl)-2-azabicyclo[2.2.1]heptan-2-yl)-2-oxoethyl)-1H-indole-3-carboxamide], the IC50 under setting [2] is above 10 µM. For the compound `Cc1cccc(NC(=O)[C@@H]2[C@H]3CC[C@H](C3)N2C(=O)Cn2cc(C(N)=O)c3cc(-c4n[nH]c5ccsc45)ccc32)n1` [Compound 704, 1-(2-((1R,3S,4S)-3-(6-Methylpyridin-2-ylcarbamoyl)-2-azabicyclo[2.2.1]heptan-2-yl)-2-oxoethyl)-5-(1H-thieno[3,2-c]pyrazol-3-yl)-1H-indole-3-carboxamide], under setting [1], the IC50 was above 10 µM. Regarding `CC(=O)c1nn(CC(=O)N2C[C@H](F)C[C@H]2C(=O)NC2CCN(C(=O)c3cn[nH]c3)CC2)c2ccc(-c3cnc(C)nc3)cc12` [Compound 261, (2S,4R)-N-(1-(1H-pyrazole-4-carbonyl)piperidin-4-yl)-1-(2-(3-acetyl-5-(2-methylpyrimidin-5-yl)-1H-indazol-1-yl)acetyl)-4-fluoropyrrolidine-2-carboxamide], the IC50 (read-out: IC50) was below 1 µM. Regarding `CC(=O)c1nn(CC(=O)N2C[C@H](F)C[C@H]2C(=O)Nc2cccc(Br)n2)c2ccc(-c3cnc(S(C)(=N)=O)nc3)cc12` (stereo partly drawn) [Compound 732, (2S,4R)-1-(2-(3-Acetyl-5-(2-(S-methylsulfonimidoyl)pyrimidin-5-yl)-1H-indazol-1-yl)acetyl)-N-(6-bromopyridin-2-yl)-4-fluoropyrrolidine-2-carboxamide], under setting [1], the IC50 was below 1 µM. As for `COc1ccc(N2C[C@@H]3CC[C@H]2C=C3c2ccc3c(c2)c(C(C)=O)nn3CC(=O)N2C[C@H](F)C[C@H]2C(=O)Nc2cccc(Br)n2)cc1` [Compound 721, (2S,4R)-1-(2-(3-Acetyl-5-((1S,4R)-2-(4-methoxyphenyl)-2-azabicyclo[2.2.2]oct-5-en-5-yl)-1H-indazol-1-yl)acetyl)-N-(6-bromopyridin-2-yl)-4-fluoropyrrolidine-2-carboxamide], the IC50 under setting [1] was below 1 µM. Consider `Cc1cccc(C[C@H](O)[C@@H]2C[C@@H](F)CN2C(=O)Cn2cc(C(N)=O)c3cc(-c4cnc(C)nc4)ccc32)n1` [Compound 455, 1-(2-((2S,4R)-4-fluoro-2-((S)-1-hydroxy-2-(6-methylpyridin-2-yl)ethyl)pyrrolidin-1-yl)-2-oxoethyl)-5-(2-methylpyrimidin-5-yl)-1H-indole-3-carboxamide], for which the IC50 under setting [2] was above 10 µM.

In the case of `CC(=O)c1nn(CC(=O)N2[C@H]3CC[C@H](CC3)[C@H]2C(=O)Nc2cccc(Br)n2)c2ccc(-c3cnc(C)nc3)cc12` [Compound 734, (1R,3S,4R)-2-(2-(3-Acetyl-5-(2-methylpyrimidin-5-yl)-1H-indazol-1-yl)acetyl)-N-(6-bromopyridin-2-yl)-2-azabicyclo[2.2.2]octane-3-carboxamide], the IC50 under setting [1] is below 1 µM.

For `CC(=O)c1cn(CC(=O)N2C[C@H](F)C[C@H]2C(=O)NCc2ccncc2)c2ccc(-c3ccnnc3)cc12` [Compound 40, (2S,4R)-1-(2-(3-acetyl-5-(pyridazin-4-yl)-1H-indol-1-yl)acetyl)-4-fluoro-N-(pyridin-4-ylmethyl)pyrrolidine-2-carboxamide], the IC50 is 1 to 10 µM. In the case of `Cc1ncc(-c2ccc3c(c2)c([C@H](C)O)nn3CC(=O)N2[C@@H]3C[C@@H]3C[C@H]2C(=O)Nc2cccc(Br)n2)cn1` [Compound 409, (1R,3S,5R)—N-(6-Bromopyridin-2-yl)-2-(2-(3-((S)-1-hydroxyethyl)-5-(2-methylpyrimidin-5-yl)-1H-indazol-1-yl)acetyl)-2-azabicyclo[3.1.0]hexane-3-carboxamide], under setting [2], the IC50 is below 1 µM. `CC(=O)c1nn(CC(=O)N2C[C@H](F)C[C@@H]2C(=O)Nc2nc(Br)ccc2C(=O)O)c2ccc(-c3cnc(C)nc3)cc12` [Compound 648, 2-((2R,4R)-1-(2-(3-Acetyl-5-(2-methylpyrimidin-5-yl)-1H-indazol-1-yl)acetyl)-4-fluoropyrrolidine-2-carboxamido)-6-bromonicotinic acid] yielded an IC50 of 1 to 10 µM.
